We go through 18 molecules from PubChem BioAssay (NCI).

Among the test systems are LOX IMVI melanoma; SK-MEL-2 melanoma; M14 melanoma; MOLT-4 leukemia; HL-60(TB) leukemia; KM12 colon; HT29 colon; T-47D breast; MDA-MB-435; PC-3 prostate.
Experiment in all cases: NCI-60 cell line screen, 48 h

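Interpolation was linear, between the two tested concentrations surrounding the appropriate level; five concentrations were tested over 48 hours in 96-well plates. GI50: concentration for 50% inhibition of growth. TGI denotes the concentration required for complete inhibition of growth.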

In the case of `O=C(O)/C(=C/C=C/c1ccccc1)c1csc(-c2nc(/C(=C\C=C\c3ccccc3)C(=O)O)cs2)n1`, the TGI in the assay on LOX IMVI melanoma was more than 100 µM; with SK-MEL-2 melanoma, 43.6 µM; with M14 melanoma, 61 µM; with MOLT-4 leukemia, 16.4 µM; in the assay with HL-60(TB) leukemia it was 39.3 µM; with KM12 colon, 92.4 µM. The TGI in the assay on HT29 colon is more than 100 µM.
Consider `C1CCN(c2nc(=[N+]3CCCCC3)ss2)CC1`, for which the TGI in the assay with LOX IMVI melanoma, with SK-MEL-2 melanoma, with M14 melanoma, in the assay on MOLT-4 leukemia, with HL-60(TB) leukemia and with KM12 colon was more than 100 µM in each case. The molecule also returned a TGI with HT29 colon of more than 100 µM.
In the case of `COc1cc(OC)c(C2CC=Cc3c(OC)cc(OC)c(OC)c32)cc1OC` (stereo not drawn), the TGI in the assay on LOX IMVI melanoma, in the assay on SK-MEL-2 melanoma, in the assay with M14 melanoma, in the assay on MOLT-4 leukemia, in the assay on HL-60(TB) leukemia and in the assay with KM12 colon was more than 100 µM each time. The TGI in the assay with HT29 colon is more than 100 µM.
For the molecule `Clc1ccc(C2SCc3nc4ccccc4n32)cc1Cl` (stereo not drawn), the TGI was 25.7 µM in the assay on LOX IMVI melanoma; 35.5 µM with SK-MEL-2 melanoma; 27.2 µM with M14 melanoma; more than 100 µM with MOLT-4 leukemia; 40.7 µM with HL-60(TB) leukemia; 27 µM in the assay on KM12 colon. The molecule also returned a TGI in the assay on HT29 colon of 29.9 µM.
Take `CCC(=O)c1c(NOC2OC(COC(C)=O)C(OC(C)=O)C(OC(C)=O)C2OC(C)=O)nc(OC)n(C)c1=O` (stereo not drawn): the TGI with LOX IMVI melanoma, with SK-MEL-2 melanoma, in the assay with M14 melanoma, in the assay with MOLT-4 leukemia, in the assay on KM12 colon and in the assay on HT29 colon was more than 100 µM each time.
Turning to `NCCCNCCCCN(CCCN)/[N+]([O-])=N\O`, the TGI in the assay on SK-MEL-2 melanoma, in the assay on M14 melanoma, in the assay on MOLT-4 leukemia, with HL-60(TB) leukemia, in the assay on KM12 colon and with HT29 colon was more than 100 µM each time.
`COc1cc2c3c(c1OC)-c1c(ccc4c1OCO4)CC3(C#N)N(C(=O)c1ccccc1)CC2` (stereo not drawn): the TGI with LOX IMVI melanoma, in the assay on M14 melanoma, with MOLT-4 leukemia, with HL-60(TB) leukemia, in the assay on KM12 colon and in the assay with HT29 colon was more than 100 µM in each case.
Consider `COC(=O)c1c(N)n[nH]c1N`, for which the TGI in the assay on LOX IMVI melanoma, in the assay on SK-MEL-2 melanoma, with M14 melanoma, with MOLT-4 leukemia, with HL-60(TB) leukemia and with KM12 colon was more than 100 µM each time.
`CC(=O)c1ccc(NC(=O)C(=O)Nn2c(=S)[nH]c3ccccc3c2=O)cc1`: the TGI with LOX IMVI melanoma, with SK-MEL-2 melanoma, with M14 melanoma, in the assay on MOLT-4 leukemia, in the assay on HL-60(TB) leukemia and with KM12 colon was more than 100 µM throughout. In the assay with HT29 colon, this molecule showed a TGI of more than 100 µM.
As to `O=C(Nc1nc2ncn(CCNCc3ccccc3)c2c(=O)[nH]1)c1ccccc1`, the TGI in the assay with LOX IMVI melanoma, with SK-MEL-2 melanoma, in the assay on M14 melanoma, in the assay with HL-60(TB) leukemia, in the assay with KM12 colon and with HT29 colon was more than 100 µM in each case.
With `Cc1cc(C)nc(NS(=O)(=O)c2ccc(Nc3c4ccc(Cl)cc4nc4c(C(=O)Nc5ccc(S(N)(=O)=O)cc5)cccc34)cc2)n1`, the TGI with LOX IMVI melanoma stood at 34.8 µM; in the assay with M14 melanoma, 34.7 µM; in the assay with MOLT-4 leukemia it was 39.7 µM; in the assay with KM12 colon, 27.2 µM; with HT29 colon it was 52.4 µM.
Turning to `COC(=O)CCC(=O)CC(=O)C(=O)Nc1c(Cl)cc([N+](=O)[O-])cc1Cl`, the TGI in the assay on LOX IMVI melanoma, with SK-MEL-2 melanoma, in the assay on M14 melanoma, in the assay on MOLT-4 leukemia, in the assay on HL-60(TB) leukemia and in the assay on KM12 colon was more than 100 µM in each case. Besides, the TGI in the assay on HT29 colon was more than 100 µM.
Take `O=C(CC1(O)C(=O)Nc2c(Cl)cc(Cl)cc21)c1cccc2ccccc12` (stereo not drawn): the TGI in the assay with LOX IMVI melanoma was found to be 32.5 µM; in the assay on SK-MEL-2 melanoma, 32.6 µM; in the assay with M14 melanoma it was 30.5 µM; with MOLT-4 leukemia, 66.9 µM; in the assay with HL-60(TB) leukemia, 26.5 µM; with KM12 colon it was 31.5 µM. Besides, the TGI in the assay with HT29 colon worked out at 33.8 µM.
For the molecule `O=CC[C@H]1CCc2ccccc2C12CCC(=O)CC2`, the TGI was more than 100 µM in the assay with LOX IMVI melanoma; more than 100 µM in the assay with SK-MEL-2 melanoma; more than 100 µM in the assay with M14 melanoma; more than 100 µM with MOLT-4 leukemia; 65.8 µM in the assay with HL-60(TB) leukemia; more than 100 µM with KM12 colon. The TGI with HT29 colon is more than 100 µM.
On to `CC(C)(C)c1cc2c3c(c1)C(C(F)(F)F)(C(F)(F)F)O[Te]3(C)OC2(C(F)(F)F)C(F)(F)F`, for which the TGI in the assay with LOX IMVI melanoma, in the assay on SK-MEL-2 melanoma, in the assay on M14 melanoma, with MOLT-4 leukemia, in the assay on HL-60(TB) leukemia and with KM12 colon was more than 100 µM in each case. Besides, the TGI with HT29 colon was more than 100 µM.
For the molecule `O=C1C2C3C=CC(C2C(=O)N1COP(=O)(O)O)C1C2C(=O)N(COP(=O)(O)O)C(=O)C2C31` (stereo not drawn), the TGI is more than 64.1 µM with LOX IMVI melanoma; more than 100 µM in the assay with SK-MEL-2 melanoma; more than 100 µM in the assay with M14 melanoma; more than 100 µM in the assay with MOLT-4 leukemia; 29.9 µM with HL-60(TB) leukemia; more than 100 µM with KM12 colon. Moreover, the TGI in the assay with HT29 colon is more than 100 µM.
Turning to `Fc1ccccc1C1CC(c2ccc3ccccc3c2)=Nc2ccccc2S1` (stereo not drawn), the TGI in the assay on LOX IMVI melanoma, with SK-MEL-2 melanoma, in the assay on M14 melanoma, in the assay on MOLT-4 leukemia, in the assay with HL-60(TB) leukemia and with KM12 colon was more than 100 µM throughout. In the assay with HT29 colon, this molecule had a TGI of more than 100 µM.
As for `Cc1cc(N(CCNc2ccnc3cc(Cl)ccc23)Cc2ccco2)nc(Cl)n1`, the GI50 with LOX IMVI melanoma was 1.59 µM; in the assay on SK-MEL-2 melanoma, 1.9 µM; in the assay on M14 melanoma, 1.6 µM; in the assay with T-47D breast, 1.52 µM; in the assay on KM12 colon, 1.89 µM; in the assay with HT29 colon, 1.58 µM. For the same molecule, the GI50 in the assay with MDA-MB-435 is 1.72 µM; in the assay with PC-3 prostate it was 1.71 µM. Further, the TGI turned out to be 3.07 µM with LOX IMVI melanoma; 3.83 µM in the assay with SK-MEL-2 melanoma; 3.01 µM in the assay on M14 melanoma; 3.58 µM in the assay with T-47D breast; 3.95 µM in the assay on KM12 colon; 3.24 µM in the assay with HT29 colon. In addition, the TGI stood at 3.37 µM in the assay with MDA-MB-435 and 3.18 µM in the assay on PC-3 prostate.
